Assay results as given in US20240368209A1, “GEMCITABINE ANTICANCER DERIVATIVE AND ANTICANCER PHARMACEUTICAL USE” (ASCENTAWITS PHARMACEUTICALS, LTD., priority 2021, published 2024).

What was measured:
[1] = Plasma stability in monkey plasma; type: in vitro ADME
Experimental: The final concentration of organic solvents was 0.5%. The test was conducted in duplicate. • C.
Samples were analyzed with LC-MS/MS. All calculations were conducted using Microsoft Excel.

[2] = Plasma stability in rat plasma; conditions: rat, plasma
Experimental: 1 mM working solution of the test compound was prepared in DMSO. 1 mM working solution of propantheline was prepared in acetonitrile. 1 mM working solution of lovastatin (mevinolin) was prepared in DMSO. Propantheline was used as a positive control for human, monkey, dog, and mouse plasma stability tests. Lovastatin was a positive control for rat plasma stability test.
• A. 398 μL of plasma per well was added to the culture plate, and the plate was preheated at 37° C. for 15 minutes. • B. After preincubation, 2 μL of working solution (test solution or control solution) was added to the 398 μL plasma mentioned above, resulting in a final concentration of 5 μM. The final concentration of organic solvents was 0.5%. The test was conducted in duplicate. • C. The reaction sample was incubated at 37° C. • D. 50 μL was extracted from the reaction sample at 0, 15, 30, 60, and 120 minutes, respectively. […] 100 μL of supernatant was taken and transferred to a new plate. The supernatant was diluted with ultrapure water according to the LC-MS signal response and peak shape.
Samples were analyzed with LC-MS/MS. All calculations were conducted using Microsoft Excel. The peak area ratio was determined from the extracted ion chromatogram. • (1) The percentage of the remaining compound at each time point was calculated with the following formula: […]
wherein the slope value k was determined by linear regression of the natural logarithm of the remaining percentage of the parent drug vs. incubation time curve.

[3] = system: HuPrime pancreatic cancer xenograft model PA1222; test: In vivo pharmacodynamic experiment in HuPrime pancreatic cancer PA1222 PDX model; conditions: for Average weight (g) of mice / Tumor volume (mm^3) (x ± S): Group 3, 240 mg/kg p.o.
[4] = Group 3, 240 mg/kg p.o. QD×21, Day 32
[5] = Group 4, 160 mg/kg i.p. QD×5, 2 days off, 2 weeks off, QD×5, Day 32

Structure (SMILES): CC(C)NP(=O)(OCc1ccc([N+](=O)[O-])c(Oc2ccc(-c3ccc(F)cc3)c(F)c2)c1)OCC1OC(C2N=CC(N)=NC2=O)C(F)(F)C1O (stereo not shown) [Compound H11]
- t1/2 (min) [1]: ∞
- Remaining percentage (%) ([1]; 0 min, 5 μM, 37° C.): 100.00%
- plasma stability (in words) ([1]; 37° C., at least 2 hours): stable and has no significant metabolism
- Remaining percentage (%) ([1]; 15 min): 100.61%
- Remaining percentage (%) ([1]; 30 min): 92.99%
- Remaining percentage (%) ([1]; 60 min): 103.66%
- Remaining percentage (%) ([1]; 120 min): 98.48%
- t1/2 (min) [2]: ∞
- Remaining percentage (%) ([2]; 0 h, 5 μM): 100.00%
- Remaining percentage (%) ([2]; 0.25 h, 5 µM): 108.59%
- Remaining percentage (%) ([2]; 0.5 h, 5 µM): 105.39%
- Remaining percentage (%) ([2]; 1 h, 5 µM): 100.74%
- Remaining percentage (%) ([2]; 2 h, 5 µM): 109.53%
- weight loss and tolerability during treatment ([3]; Group 3, 240 mg/kg p.o. QD×21): did not show any significant weight loss, and tolerated well
- Relative tumor volume (x ± S) [3, 4]: 0.47 ± 0.27
- T/C (%) [3, 4]: 7.65%
- TGI (%) [3, 4]: 92.35%
- complete tumor inhibition rate [3, 4]: 20%
- Tumor volume (x ± S) ([3]; Group 3, 240 mg/kg p.o. QD×21, Day 32, mean ± standard error): 44.61 ± 22.14
- Average weight (g) of mice ([3]; Day 0): 21.8 g
- Average weight (g) of mice ([3]; Day 1): 21.5 g
- Average weight (g) of mice ([3]; Day 2): 21.5 g
- Average weight (g) of mice ([3]; Day 3): 21.6 g
- Average weight (g) of mice ([3]; Day 4): 21.9 g
- Average weight (g) of mice ([3]; Day 5): 22.3 g
- Average weight (g) of mice ([3]; Day 6): 21.7 g
- Average weight (g) of mice ([3]; Day 7): 21.6 g
- Average weight (g) of mice ([3]; Day 8): 21.7 g
- Average weight (g) of mice ([3]; Day 9): 22.5 g
- Average weight (g) of mice ([3]; Day 10): 21.6 g
- Average weight (g) of mice ([3]; Day 11): 21.9 g
- Average weight (g) of mice ([3]; Day 12): 22.0 g
- Average weight (g) of mice ([3]; Day 13): 21.9 g
- Average weight (g) of mice ([3]; Day 14): 21.6 g
- Average weight (g) of mice ([3]; Day 15): 21.6 g
- Average weight (g) of mice ([3]; Day 16): 22.1 g
- Average weight (g) of mice ([3]; Day 17): 21.8 g
- Average weight (g) of mice ([3]; Day 18): 21.9 g
- Average weight (g) of mice ([3]; Day 19): 21.8 g
- Average weight (g) of mice ([3]; Day 20): 21.9 g
- Average weight (g) of mice ([3]; Day 21): 21.8 g
- Average weight (g) of mice ([3]; Day 25): 22.6 g
- Average weight (g) of mice ([3]; Day 28): 22.4 g
- Average weight (g) of mice ([3]; Day 32): 22.9 g
- Tumor volume (mm^3) (x ± S) ([3]; day 0): 102.83 mm^3
- Tumor volume (mm^3) (x ± S) ([3]; day 4): 123.16 mm^3
- Tumor volume (mm^3) (x ± S) ([3]; day 7): 90.07 mm^3
- Tumor volume (mm^3) (x ± S) ([3]; day 11): 54.28 mm^3
- Tumor volume (mm^3) (x ± S) ([3]; day 14): 41.73 mm^3
- Tumor volume (mm^3) (x ± S) ([3]; day 18): 34.60 mm^3
- Tumor volume (mm^3) (x ± S) ([3]; day 21): 29.52 mm^3
- Tumor volume (mm^3) (x ± S) ([3]; day 25): 30.71 mm^3
- Tumor volume (mm^3) (x ± S) ([3]; day 28): 30.59 mm^3
- Tumor volume (mm^3) (x ± S) ([3]; day 32): 44.61 mm^3
- weight loss and tolerability during treatment ([3]; Group 4, 160 mg/kg i.p. QD×5, 2 days off, 2 weeks off, QD×5): did not show any significant weight loss, and tolerated well
- Relative tumor volume (x ± S) [3, 5]: 2.01 ± 0.41
- T/C (%) [3, 5]: 32.38%
- TGI (%) [3, 5]: 67.62%
